The text below walks through data of US20080132539A1, “Hydroxamic Acid Derivative And Age Generation Inhibitor Containing The Derivative” (priority 2003, published 2008).

The assay deals with Maillard reaction (lysozyme / fructose, dimer formation). Description: Maillard reaction-inhibiting effects (lysozyme dimer formation with fructose, SDS-PAGE densitometry). It is filed as biochemical. As to conditions: 10 mg/mL lysozyme, 200 mM fructose, pH 7.4, 37° C., 4 days, dimer formation inhibition rate. How it is done: This Example examined Maillard reaction-inhibiting effects using, as test compounds, the compounds produced in the above-described Examples and the commercially available substances arginine hydroxamate (Compound No. 111), tyrosine hydroxamate (Compound No. 112), and tryptophan hydroxamate (Compound No. 113). More specifically, 10 mg/mL lysozyme, 200 mM fructose, and each of the above-described test compounds dissolved in a 0.4 mM sodium phosphate buffer (pH 7.4) so as to provide a concentrations of 0.1, 0.3, 1, or 3 mM were incubated at 37° C. for 4 days. After the incubation, the samples were subjected to SDS-PAGE, stained with Coomassie Brilliant Blue R-250, and quantitated for the formed dimmers using a densitometer. The Maillard reaction-inhibiting activity was defined as the dimmer formation inhibition rate of a test compound calculated on the basis that the amount of dimmer is 100% in the absence of the test compound, using, as blank, the amount of dimer in the absence of fructose and the test compound.

[1] abbreviates: test compound concentration 0.1 mM.
Where [2] appears, read: test compound concentration 0.3 mM.
[3] abbreviates: test compound concentration 1 mM.
Setting [4] is: test compound concentration 3 mM.

In the case of `CC(C)(C)c1ccc(Cn2cc(CC(N)C(=O)NO)c3ccccc32)cc1` (racemic) [Compound No. 106, (RS)-2-amino-3-[1-(4-t-butylbenzyl)-1H-indol-3-yl]-N-hydroxypropionamide], the “Maillard reaction-inhibiting activity (%)” value by setting is: under setting [1], 94%; under setting [2], 95%; under setting [3], 97%; under setting [4], 95%.

`NC(Cc1cn(Cc2ccc(F)c(F)c2)c2ccccc12)C(=O)NO` (racemic) [Compound No. 108, (RS)-2-amino-3-[1-(3,4-difluorobenzyl)-1H-indol-3-yl]-N-hydroxypropionamide]: the “Maillard reaction-inhibiting activity (%)” value was determined as 102% under setting [1], 103% under setting [2], 104% under setting [3] and 104% under setting [4].

Take `CC(C)(C)c1ccc(NC(=O)CC[C@H](N)C(=O)NO)cc1` [Compound No. 2, (S)-2-amino-4-(4-t-butylphenylaminocarbonyl)-N-hydroxybutyramide]: the “Maillard reaction-inhibiting activity (%)” value under setting [1] is reported as 86%, the “Maillard reaction-inhibiting activity (%)” value under setting [2] came out at 100%, the “Maillard reaction-inhibiting activity (%)” value under setting [3] is 100% and the “Maillard reaction-inhibiting activity (%)” value under setting [4] is 100%.

`N[C@@H](CCC(=O)NC1CCCCC1)C(=O)NO` [Compound No. 5, (S)-2-amino-4-(cyclohexylaminocarbonyl)-N-hydroxybutyramide]: the “Maillard reaction-inhibiting activity (%)” value is reported as −3% under setting [1], 5% under setting [2], 35% under setting [3] and 97% under setting [4].

`N[C@@H](CCC(=O)NCC(c1ccccc1)c1ccccc1)C(=O)NO` [Compound No. 6, (S)-2-amino-4-(2,2-diphenylethylaminocarbonyl)-N-hydroxybutyramide]: the “Maillard reaction-inhibiting activity (%)” value under setting [1] amounted to 49%, the “Maillard reaction-inhibiting activity (%)” value under setting [2] is listed as 97%, the “Maillard reaction-inhibiting activity (%)” value under setting [3] was 103% and the “Maillard reaction-inhibiting activity (%)” value under setting [4] came to 100%.

As for `N[C@@H](CCC(=O)NCc1ccccn1)C(=O)NO` [Compound No. 7, (S)-2-amino-4-(pyridin-2-ylmethylaminocarbonyl)-N-hydroxybutyramide], the “Maillard reaction-inhibiting activity (%)” value reads like this: under setting [1], −3%; under setting [2], −4%; under setting [3], 13%; under setting [4], 72%.

As for `N[C@@H](CCCNC(=O)c1ccc([N+](=O)[O-])cc1)C(=O)NO` [Compound No. 15, (S)-2-amino-5-(4-nitrobenzoylamino)pentanoic acid hydroxyamide], the “Maillard reaction-inhibiting activity (%)” value was −12% under setting [1], −2% under setting [2], 43% under setting [3] and 98% under setting [4].

In the case of `N[C@@H](CCCNC(=O)Cc1ccc([N+](=O)[O-])cc1)C(=O)NO` [Compound No. 16, (S)-2-amino-5-(4-nitrophenylacetylamino)pentanoic acid hydroxyamide], the “Maillard reaction-inhibiting activity (%)” value runs as follows: under setting [1], −7%; under setting [2], 11%; under setting [3], 71%; under setting [4], 98%.

For `N[C@@H](CCCNC(=O)CC1CCCCC1)C(=O)NO` [Compound No. 19, (S)-2-amino-5-(cyclohexylacetylamino)pentanoic acid hydroxyamide], the “Maillard reaction-inhibiting activity (%)” value is recorded as 10% under setting [1], 54% under setting [2], 95% under setting [3] and 101% under setting [4].

For the compound `CCCN(CCC)CCC[C@H](N)C(=O)NO` [Compound No. 25, (S)-2-amino-5-dipropylaminopentanoic acid hydroxyamide], the “Maillard reaction-inhibiting activity (%)” value came to 7% under setting [1], 6% under setting [2], 40% under setting [3] and 100% under setting [4].

With `CCCCCN(CCCCC)CCC[C@H](N)C(=O)NO` [Compound No. 26, (S)-2-amino-5-dipentylaminopentanoic acid hydroxyamide], the “Maillard reaction-inhibiting activity (%)” value under setting [1] is 11%, the “Maillard reaction-inhibiting activity (%)” value under setting [2] is reported as 17%, the “Maillard reaction-inhibiting activity (%)” value under setting [3] came to 68% and the “Maillard reaction-inhibiting activity (%)” value under setting [4] is given as 100%.

Turning to `N[C@@H](CCCNC1CCCCC1)C(=O)NO` [Compound No. 27, (S)-2-amino-5-cyclohexylaminopentanoic acid hydroxyamide], the “Maillard reaction-inhibiting activity (%)” value under setting [1] was 1%, the “Maillard reaction-inhibiting activity (%)” value under setting [2] came to 7%, the “Maillard reaction-inhibiting activity (%)” value under setting [3] amounted to 32% and the “Maillard reaction-inhibiting activity (%)” value under setting [4] turned out to be 100%.

Turning to `Cc1ccc(CN(CCC[C@H](N)C(=O)NO)Cc2ccc(C)cc2)cc1` [Compound No. 28, (S)-2-amino-5-[bis-(4-methyl-benzyl)amino]pentanoic acid hydroxyamide], the “Maillard reaction-inhibiting activity (%)” value is, setting by setting: under setting [1], 100%; under setting [2], 100%; under setting [3], 100%; under setting [4], 100%.

With `Cc1ccc(C(=O)Nc2ccc(C[C@H](N)C(=O)NO)cc2)cc1` [Compound No. 30, (S)-2-amino-3-[4-(4-methylbenzoyl)amino-phenyl]-N-hydroxypropionamide], the “Maillard reaction-inhibiting activity (%)” value reads like this: under setting [1], 56%; under setting [2], 74%; under setting [3], 80%; under setting [4], 92%.

Turning to `CCCCC(=O)Nc1ccc(C[C@H](N)C(=O)NO)cc1` [Compound No. 31, (S)-2-amino-3-(4-valeroylaminophenyl)-N-hydroxypropionamide], the “Maillard reaction-inhibiting activity (%)” value runs as follows: under setting [1], 29%; under setting [2], 72%; under setting [3], 100%; under setting [4], 100%.

On to `CC(C)(C)C(=O)Nc1ccc(C[C@H](N)C(=O)NO)cc1` [Compound No. 32, (S)-2-amino-3-(4-pivaloylaminophenyl)-N-hydroxypropionamide], for which the “Maillard reaction-inhibiting activity (%)” value runs as follows: under setting [1], 23%; under setting [2], 50%; under setting [3], 89%; under setting [4], 102%.

Take `N[C@@H](Cc1ccc(NC(=O)Cc2ccc(F)cc2)cc1)C(=O)NO` [Compound No. 33, (S)-2-amino-3-{4-[2-(4-fluorophenyl)acetylamino]-phenyl}-N-hydroxypropionamide]: the “Maillard reaction-inhibiting activity (%)” value is listed as 57% under setting [1], 93% under setting [2], 98% under setting [3] and 102% under setting [4].

As to `Cc1ccc(S(=O)(=O)Nc2ccc(C[C@H](N)C(=O)NO)cc2)cc1` [Compound No. 34, (S)-2-amino-3-[4-(toluen-4-ylsulfonylamino)phenyl]-N-hydroxypropionamide], the “Maillard reaction-inhibiting activity (%)” value is given as 37% under setting [1], 98% under setting [2], 102% under setting [3] and 102% under setting [4].

On to `COC(=O)Nc1ccc(C[C@H](N)C(=O)NO)cc1` [Compound No. 36, (S)-2-amino-3-(4-methoxycarbonylaminophenyl)-N-hydroxypropionamide], for which the “Maillard reaction-inhibiting activity (%)” value runs as follows: under setting [1], 15%; under setting [2], 33%; under setting [3], 69%; under setting [4], 102%.

As for `CN(C)NC(=O)c1ccc(C[C@H](N)C(=O)NO)cc1` [Compound No. 37, (S)-2-amino-3-(4-dimethylaminocarbamoyl-phenyl)-N-hydroxypropionamide], the “Maillard reaction-inhibiting activity (%)” value under setting [1] was 1%, the “Maillard reaction-inhibiting activity (%)” value under setting [2] is 16%, the “Maillard reaction-inhibiting activity (%)” value under setting [3] is listed as 35% and the “Maillard reaction-inhibiting activity (%)” value under setting [4] stood at 94%.

Consider `CCCN(CCC)c1ccc(C[C@H](N)C(=O)NO)cc1` [Compound No. 38, (S)-2-amino-3-(4-dipropylamino-1-phenyl)-N-hydroxypropionamide], for which the “Maillard reaction-inhibiting activity (%)” value is listed as 100% under setting [1], 100% under setting [2], 100% under setting [3] and 100% under setting [4].

Consider `N[C@@H](Cc1ccc([N+](=O)[O-])cc1)C(=O)NO` [Compound No. 40, (S)-2-amino-3-(4-nitrophenyl)-N-hydroxypropionamide], for which the “Maillard reaction-inhibiting activity (%)” value under setting [1] was 37%, the “Maillard reaction-inhibiting activity (%)” value under setting [2] worked out at 49%, the “Maillard reaction-inhibiting activity (%)” value under setting [3] was 96% and the “Maillard reaction-inhibiting activity (%)” value under setting [4] is 100%.
